From PMC11589570, “Critical assessment of LC3/GABARAP ligands used for degrader development and ligandability of LC3/GABARAP binding pockets” (Nature Communications, 2024)
“And” between values parts separate entries of the source, which are not always exact repeats. Equal values may be shown once.

Key:
Assay in all cases: FP assay with Cy5-labelled p62 LIR tracer (protein titration and tracer displacement)
[1] = biological target: LC3C (Homo sapiens, UniProt Q9BXW4); format: binding; conditions: for normalized FP signal, p62 LIR tracer displacement: LC3C, listed as AN2; for compound titration LC3C (displacement curve, FP signal): two replicate columns per compound
[2] = biological target: GABARAP (Homo sapiens, UniProt O95166); format: binding; conditions: for normalized FP signal, p62 LIR tracer displacement: GABARAP; for compound titration GABARAP (displacement curve, FP signal): two replicate columns per compound
[3] = biological target: GABARAPL1 (Homo sapiens, UniProt Q9H0R8); format: binding; conditions: for normalized FP signal, p62 LIR tracer displacement: GABARAPL1; for compound titration GABARAPL1 (displacement curve, FP signal): two replicate columns per compound; for FP tracer displacement curve signal (compound titration): duplicate values
[4] = biological target: GABARAPL2 (Homo sapiens, UniProt P60520); conditions: GABARAPL2
[5] = log10 concentration [M] -3.82391
[6] = log10 concentration [M] -4.1549
[7] = log10 concentration [M] -4.60206
[8] = log10 concentration [M] -5.30103
[9] = log10 concentration [M] -5.69897
[10] = log10 concentration [M] -6.22185
[11] = log10 concentration [M] -6.69897
[12] = log10 concentration [M] -7.30103
[13] = log10 concentration [M] -7.79588
[14] = log10 concentration [M] -8.08092
[15] = log10 concentration [M] -3.82391, listed as AN2
[16] = log10 concentration [M] -4.1549, listed as AN2
[17] = log10 concentration [M] -4.60206, listed as AN2
[18] = log10 concentration [M] -5, listed as AN2
[19] = log10 concentration [M] -5.30103, listed as AN2
[20] = log10 concentration [M] -5.69897, listed as AN2
[21] = log10 concentration [M] -6.22185, listed as AN2
[22] = log10 concentration [M] -6.69897, listed as AN2
[23] = log10 concentration [M] -7.79588, listed as AN2
[24] = log10 concentration [M] -8.08092, listed as AN2
[25] = log10 concentration [M] -7.30103, listed as AN2

Chain of GABARAP (O95166 1-116): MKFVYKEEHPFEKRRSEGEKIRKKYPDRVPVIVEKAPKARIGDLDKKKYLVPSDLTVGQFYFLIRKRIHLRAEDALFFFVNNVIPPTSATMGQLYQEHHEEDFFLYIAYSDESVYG
Chain of GABARAPL1 (Q9H0R8 whole entry): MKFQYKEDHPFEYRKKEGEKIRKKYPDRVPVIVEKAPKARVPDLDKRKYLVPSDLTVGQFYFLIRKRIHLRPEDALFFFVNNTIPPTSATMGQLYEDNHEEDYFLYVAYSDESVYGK
Chain of GABARAPL2 (P60520 whole entry): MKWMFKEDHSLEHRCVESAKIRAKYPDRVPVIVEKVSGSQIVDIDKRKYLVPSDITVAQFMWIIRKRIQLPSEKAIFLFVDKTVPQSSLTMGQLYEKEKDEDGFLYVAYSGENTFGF
Chain of LC3C (Q9BXW4 1-126): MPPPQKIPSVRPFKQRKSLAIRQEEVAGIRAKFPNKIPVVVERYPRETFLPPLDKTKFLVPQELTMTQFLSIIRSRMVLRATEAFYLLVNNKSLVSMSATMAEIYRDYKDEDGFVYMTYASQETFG

normalized FP signal, p62 LIR tracer displacement [1, 5]: 84.2 and 87 | normalized FP signal, p62 LIR tracer displacement [1, 6]: 90.8 and 97 | normalized FP signal, p62 LIR tracer displacement [1, 7]: 92.6 and 96.6 | normalized FP signal, p62 LIR tracer displacement ([1]; log10 concentration [M] -5): 91.6 and 99.8 | normalized FP signal, p62 LIR tracer displacement [1, 8]: 95.6 and 98.4 | normalized FP signal, p62 LIR tracer displacement [1, 9]: 90.8 and 90.6 | normalized FP signal, p62 LIR tracer displacement [1, 10]: 97.2 and 95.2 | normalized FP signal, p62 LIR tracer displacement [1, 11]: 99.8 and 97.8 | normalized FP signal, p62 LIR tracer displacement [1, 12]: 98 and 96.2 | normalized FP signal, p62 LIR tracer displacement [1, 13]: 91.6 and 93.8 | normalized FP signal, p62 LIR tracer displacement [1, 14]: 99 and 100.4 | compound titration LC3C (displacement curve, FP signal) [1, 5]: 84.2 and 87 | compound titration LC3C (displacement curve, FP signal) [1, 6]: 90.8 and 97 | compound titration LC3C (displacement curve, FP signal) [1, 7]: 92.6 and 96.6 | compound titration LC3C (displacement curve, FP signal) ([1]; log10 concentration [M] -5): 91.6 and 99.8 | compound titration LC3C (displacement curve, FP signal) [1, 8]: 95.6 and 98.4 | compound titration LC3C (displacement curve, FP signal) [1, 9]: 90.8 and 90.6 | compound titration LC3C (displacement curve, FP signal) [1, 10]: 97.2 and 95.2 | compound titration LC3C (displacement curve, FP signal) [1, 11]: 99.8 and 97.8 | compound titration LC3C (displacement curve, FP signal) [1, 12]: 98 and 96.2 | compound titration LC3C (displacement curve, FP signal) [1, 13]: 91.6 and 93.8 | compound titration LC3C (displacement curve, FP signal) [1, 14]: 99 and 100.4 | normalized FP signal, p62 LIR tracer displacement [2, 15]: 92.5862 and 91.2069 | normalized FP signal, p62 LIR tracer displacement [2, 16]: 93.9655 and 97.069 | normalized FP signal, p62 LIR tracer displacement [2, 17]: 97.069 and 101.207 | normalized FP signal, p62 LIR tracer displacement [2, 18]: 96.5517 and 105.172 | normalized FP signal, p62 LIR tracer displacement [2, 19]: 96.8966 and 99.8276 | normalized FP signal, p62 LIR tracer displacement [2, 20]: 95.5172 and 91.0345 | normalized FP signal, p62 LIR tracer displacement [2, 21]: 96.2069 and 97.7586 | normalized FP signal, p62 LIR tracer displacement [2, 22]: 98.1034 and 96.7241 | normalized FP signal, p62 LIR tracer displacement [2, 12]: 99.8276 | normalized FP signal, p62 LIR tracer displacement [2, 23]: 98.1034 and 97.931 | normalized FP signal, p62 LIR tracer displacement [2, 14]: 97.5862 | normalized FP signal, p62 LIR tracer displacement [2, 24]: 104.655 | compound titration GABARAP (displacement curve, FP signal) [2, 5]: 92.5862 and 91.2069 | compound titration GABARAP (displacement curve, FP signal) [2, 6]: 93.9655 and 97.069 | compound titration GABARAP (displacement curve, FP signal) [2, 7]: 97.069 and 101.207 | compound titration GABARAP (displacement curve, FP signal) ([2]; log10 concentration [M] -5): 96.5517 and 105.172 | compound titration GABARAP (displacement curve, FP signal) [2, 8]: 96.8966 and 99.8276 | compound titration GABARAP (displacement curve, FP signal) [2, 9]: 95.5172 and 91.0345 | compound titration GABARAP (displacement curve, FP signal) [2, 10]: 96.2069 and 97.7586 | compound titration GABARAP (displacement curve, FP signal) [2, 11]: 98.1034 and 96.7241 | compound titration GABARAP (displacement curve, FP signal) [2, 12]: 99.8276 | compound titration GABARAP (displacement curve, FP signal) [2, 13]: 98.1034 and 97.931 | compound titration GABARAP (displacement curve, FP signal) [2, 14]: 97.5862 and 104.655 | normalized FP signal, p62 LIR tracer displacement [3, 15]: 90.5714 and 94.4286 | normalized FP signal, p62 LIR tracer displacement [3, 16]: 97.5714 and 96.8571 | normalized FP signal, p62 LIR tracer displacement [3, 17]: 97.1429 and 99 | normalized FP signal, p62 LIR tracer displacement [3, 18]: 102.429 and 102.286 | normalized FP signal, p62 LIR tracer displacement [3, 19]: 100.429 and 101.143 | normalized FP signal, p62 LIR tracer displacement [3, 9]: 94.4286 | normalized FP signal, p62 LIR tracer displacement [3, 21]: 98.5714 and 100.714 | normalized FP signal, p62 LIR tracer displacement [3, 22]: 98.7143 and 100.143 | normalized FP signal, p62 LIR tracer displacement [3, 25]: 102 and 99.5714 | normalized FP signal, p62 LIR tracer displacement [3, 23]: 98.1429 and 99.4286 | normalized FP signal, p62 LIR tracer displacement [3, 24]: 98.8571 and 103.429 | compound titration GABARAPL1 (displacement curve, FP signal) [3, 5]: 90.5714 and 94.4286 | compound titration GABARAPL1 (displacement curve, FP signal) [3, 6]: 97.5714 and 96.8571 | compound titration GABARAPL1 (displacement curve, FP signal) [3, 7]: 97.1429 and 99 | compound titration GABARAPL1 (displacement curve, FP signal) ([3]; log10 concentration [M] -5): 102.429 and 102.286 | FP tracer displacement curve signal (compound titration) [3, 9]: 94.4286 | FP tracer displacement curve signal (compound titration) [3, 21]: 98.5714 and 100.714 | FP tracer displacement curve signal (compound titration) [3, 22]: 98.7143 and 100.143 | FP tracer displacement curve signal (compound titration) [3, 25]: 102 and 99.5714 | FP tracer displacement curve signal (compound titration) [3, 23]: 98.1429 and 99.4286 | FP tracer displacement curve signal (compound titration) [3, 24]: 98.8571 and 103.429 | normalized FP signal, p62 LIR tracer displacement [4, 15]: 88.4 and 85.2 | normalized FP signal, p62 LIR tracer displacement [4, 16]: 94.4 and 106.4 | normalized FP signal, p62 LIR tracer displacement [4, 7]: 106 | normalized FP signal, p62 LIR tracer displacement [4, 17]: 104.4 | normalized FP signal, p62 LIR tracer displacement [4, 18]: 98 and 106.4 | normalized FP signal, p62 LIR tracer displacement [4, 19]: 104 and 108.8 | normalized FP signal, p62 LIR tracer displacement [4, 20]: 92.8 and 98.4 | normalized FP signal, p62 LIR tracer displacement [4, 21]: 104 and 94.4 | normalized FP signal, p62 LIR tracer displacement [4, 11]: 100 | normalized FP signal, p62 LIR tracer displacement [4, 22]: 104.4 | normalized FP signal, p62 LIR tracer displacement [4, 12]: 116.4 | normalized FP signal, p62 LIR tracer displacement [4, 25]: 100.8 | normalized FP signal, p62 LIR tracer displacement [4, 23]: 103.2 and 104 | normalized FP signal, p62 LIR tracer displacement [4, 14]: 105.2 | normalized FP signal, p62 LIR tracer displacement [4, 24]: 104.4
SMILES: O=c1cc(-c2ccccc2)c2c(O)cc(O)cc2o1 [compound 2]
